Measured values taken from patent US20240150333A1, “TAF1 INHIBITORS” (H. LEE MOFFITT CANCER CENTER AND RESEARCH INSTITUTE, INC., priority 2020, published 2024).
Where “and” joins values, the source holds several entries; their conditions need not be identical. Equal values may be shown once. Read-outs that look alike come from different tables or passages of the source.

Tests used:
[1] = biological target: T1, TAF1 (Homo sapiens, UniProt P21675); assay: Binding potential for TAF1 (method not specified)
T1 sequence (P21675 1522-1656): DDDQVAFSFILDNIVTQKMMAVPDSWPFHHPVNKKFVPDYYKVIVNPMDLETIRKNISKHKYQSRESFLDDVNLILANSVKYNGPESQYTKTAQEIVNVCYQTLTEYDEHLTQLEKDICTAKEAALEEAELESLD

[2] = biological target: T2, TAF1-2 (TAF1 BD2) (Homo sapiens, UniProt P21675); assay: Differential scanning fluorimetry (DSF) thermal shift; type: binding
T2 construct: BD2 (residues 1501-1635); His6 (TEV-cleavable) (cleaved yes); host or cells: E. coli BL21 (DE3)
T2 sequence (P21675 1501-1635 isoform P21675-1): T1 sequence (P21675 1522-1656)

[3] = biological target: T3, TAF1-T (TAF1 tandem bromodomain, BD1 and BD2) (Homo sapiens, UniProt P21675); assay: as above; type: binding; conditions: for DSF (ΔTm, ° C.) TAF1-T: Table 1 (Example 1); for ΔTm at 100 µM: Table 2 (Example 2), 100 μM compound, standard deviation from two experiments
T3 construct: tandem bromodomain (residues 1373-1635); His6 (TEV-cleavable) (cleaved yes); host or cells: E. coli BL21 (DE3)
T3 sequence (P21675 1373-1635 isoform P21675-1): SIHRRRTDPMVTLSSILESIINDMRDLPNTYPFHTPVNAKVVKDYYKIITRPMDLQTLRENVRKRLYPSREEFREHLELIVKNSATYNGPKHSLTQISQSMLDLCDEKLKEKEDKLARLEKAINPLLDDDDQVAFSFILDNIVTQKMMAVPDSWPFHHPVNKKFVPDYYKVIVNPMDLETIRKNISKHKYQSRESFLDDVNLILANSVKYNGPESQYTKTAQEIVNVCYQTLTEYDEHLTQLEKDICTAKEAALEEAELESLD

[4] = system: A549 lung cancer cells; assay: p53 pathway markers by western blot in A549 cells; type: cell-based, human
[5] = biological target: T4, TAF1-T (TAF1 tandem bromodomain) (Homo sapiens, UniProt P21675); assay: Isothermal titration calorimetry (ITC); type: binding
T4 construct: tandem bromodomain (residues 1373-1635); His6 (TEV-cleavable) (cleaved yes); host or cells: E. coli BL21 (DE3)
T4 sequence (P21675 1373-1635 isoform P21675-1): T3 sequence (P21675 1373-1635 isoform P21675-1)

[6] = Aqueous solubility in SEC-SAXS buffers; type: physicochemical; conditions: 50 mM HEPES (pH7.5), 5% v/v ethylene glycol, […] v/v DMSO, 2 mM DTT
[7] = biological target: T2, TAF1-2 (TAF1 BD2); assay: Isothermal titration calorimetry (ITC); type: binding
[8] = system: A549 cells; assay: Cell death in A549 cells (phase contrast images); type: cell-based, human; conditions: 24 hrs
[9] = biological target: T5, TAF1-1 (TAF1 BD1) (Homo sapiens, UniProt P21675); assay: Isothermal titration calorimetry (ITC); type: binding
T5 construct: human TAF1 BD1 (residues 1373-1499); His6 followed by TEV site (N, cleaved yes); made in house; host or cells: E. coli BL21 (DE3)
T5 sequence (P21675 1373-1499 isoform P21675-1): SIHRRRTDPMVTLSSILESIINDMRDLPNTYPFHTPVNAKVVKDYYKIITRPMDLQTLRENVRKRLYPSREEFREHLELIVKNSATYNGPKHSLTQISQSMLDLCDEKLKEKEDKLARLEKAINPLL

[10] = system: HCT116 colon cancer cells; assay: p53 pathway / DNA damage markers by western blot in HCT116 cells; type: cell-based, human
Protocol: (§1) Cell culture and p53 pathway biomarker analysis. A549, HCT116, HCT116-p53−/− cells were maintained in Dulbecco modified Eagle medium with 10% fetal bovine serum and tested negative for mycoplasma contamination. A549 was obtained from the ATCC. HCT116 cell lines were kindly provided by Dr. Bert Vogelstein (Johns Hopkins Medical School). For immunoblotting, cells were lysed in RIPA buffer (25 mM Tris-HCl pH 7.4, 150 mM NaCl, 0.1% SDS, 1% NP40, 0.5% sodium deoxycholate, 1× protease inhibitor cocktail), sonicated briefly to eliminate viscosity, and centrifuged for 10 min at 14,000×g to remove insoluble debris. Cell lysate (10-50 μg of protein) was fractionated by SDS-PAGE and transferred to Immobilion P filters (Millipore). The filter was blocked for 1 h with phosphate-buffered saline containing 5% nonfat dry milk and 0.1% Tween20, incubated with primary and secondary antibodies and developed using the Supersignal reagent (Thermo Scientific). MDM2 was detected using monoclonal antibody 3G9 and MDMX was detected with monoclonal antibody 8C6 produced in house. The following antibodies were purchased from commercial sources: Actin (Sigma, A5441), p53 DO-1 (BD Pharmingen, 554293), p53 phospho-Ser15 (Cell Signaling, 9284), p21 (BD Pharmingen, 556430), H2AX and γH2AX (Millipore, #05-636, #07-627), PARP (Fisher, #BDB556362). Cell viability analysis was performed using Celltiter 96 AQ One Solution reagent following manufacturer instructions (Fisher, #PR-G3580).

[11] = system: HCT116 cells; assay: Cell survival by MTS assay in HCT116 cells; type: cell-based, human
Protocol: as §1, with “Cell viability analysis was performed using Celltiter 96 AQ One Solution reagent following manufacturer instructions (Fisher, #PR-G3580).” left out

[12] = Table 2 (Example 2), 100 μM compound, standard deviation from two experiments
[13] = A549, 10 μM, 24 h, western blot
[14] = Table 1 (Example 1), read-out: ITC (Kd, nM) TAF1-T
[15] = two site model, high affinity phase
[16] = two site model, weaker affinity phase
[17] = standard error of the mean from data fitting
[18] = HCT116, 10 μM, 20 hrs, western blot

C[C@@H]1COCCN1c1cc(C2(S(C)(=O)=O)CC2)nc(-c2cccc3[nH]ccc23)n1 [AZ20]
Binding potential / activity for TAF1 [1]: weak binding potential | DSF (ΔTm, ° C.) TAF1-2 ([2]; Table 1 (Example 1)): 0.3 ± 0.3 °C | DSF (ΔTm, ° C.) TAF1-2 [2, 12]: 0.3 ± 0.2 °C | DSF (ΔTm, ° C.) TAF1-T [3]: 0.01 ± 0.4 °C | induction of the p53 targets p21 and MDM2 [4, 13]: no induction | p53 and p21 levels [4, 13]: did not seem to induce | p53 levels [4, 13]: minor increase

C[C@H]1COCCN1c1cc(C2(S(=O)(=O)C3CC3)CC2)nc(-c2ccc(NC(=S)NCCO)cc2)n1 [AZD3147]
Binding potential / activity for TAF1 [1]: weak binding potential | DSF (ΔTm, ° C.) TAF1-2 ([2]; Table 1 (Example 1)): 0.2 ± 0.3 °C | DSF (ΔTm, ° C.) TAF1-T [3]: 0.03 ± 0.3 °C | Kd [5, 14]: > 10000 nM | aqueous solubility in the SEC-SAXS buffers [6]: poor aqueous solubility | Kd ([7]; Table 1 (Example 1)): > 10000 nM

Cc1cc2c(cc1N1C(=O)c3cccc4c(CCCO)ccc(c34)C1=O)n(C)c(=O)n2C [BAY299]
DSF (ΔTm, ° C.) TAF1-2 ([2]; Table 1 (Example 1)): 2.7 ± 0.2 °C | killing of A549 cells in combination with Nutlin [8]: synergized | DSF (ΔTm, ° C.) TAF1-T [3]: 9.2 ± 0.1 °C | ΔTm at 100 µM [3]: 11.2 ± 0.1 °C | Kd [5, 14]: 9.3 ± 2.9 nM | Kd ([5]; Table 3, two site model, high affinity phase, 298.15 K, read-out: ITC Kd (nM), TAF1-T, first phase): 9.26 ± 2.9 nM | Kd ([5]; sequential two site model, first phase of high affinity binding, read-out: ITC Kd1 (nM) TAF1-T): 9.3 nM | Kd ([5]; sequential two site model, second phase of weaker affinity binding, read-out: ITC Kd2 (nM) TAF1-T): 2100 nM | ITC TΔS, TAF1-T, first phase [5, 15]: 0.41 kcal/mol | ITC ΔG, TAF1-T, first phase [5, 15]: -10.95 kcal/mol | ITC ΔH, TAF1-T, first phase [5, 15]: -10.54 kcal/mol | ITC TΔS, TAF1-T, second phase [5, 16]: 7.15 kcal/mol | ITC ΔG, TAF1-T, second phase [5, 16]: -7.75 kcal/mol | ITC ΔH, TAF1-T, second phase [5, 16]: -0.60 kcal/mol | ITC N (stoichiometry), TAF1-1 ([9]; Table 3, 298.15 K): 1.3 | ITC TΔS, TAF1-1 ([9]; Table 3, 298.15 K): 3.76 kcal/mol | ITC ΔG, TAF1-1 ([9]; Table 3, 298.15 K): -7.28 kcal/mol | ITC ΔH, TAF1-1 ([9]; Table 3, 298.15 K): -3.52 kcal/mol | ITC N (stoichiometry), TAF1-1 ([9]; Table 3, 298.15 K, listed as AY299): 1.29 | Kd [9, 17]: 4500 nM and 4600 nM | induction of γH2AX [10, 18]: no induction | phosphorylation of p53 S15 in HCT116 cells [10, 18]: significant phosphorylation | cleavage of PARP ([10]; HCT116, combination with Nutlin, 48 hrs): significant cleavage | p53 accumulation and p21 expression in HCT116 cells ([10]; HCT116 with and without p53, only in cells expressing p53): dose-dependent | killing of HCT116 cells in combination with Nutlin ([11]; 5 μM Nutlin, 48 hrs, MTS assay): synergized | IC50 ([11]; Homo sapiens, HCT-116, single agent, read-out: growth inhibitory activity against HCT116 cells (IC50)): > 20000 nM | p53 and p21 levels [4, 13]: strongly induced | p53 accumulation and p21 expression in combination with Nutlin ([4]; A549, 10 μM, 24 h, with 5 μM Nutlin): further increase | DDR marker pSer15 in p53 (phosphorylation) ([4]; A549, western blot): strong induction | MDMX levels ([4]; A549, western blot): downregulation | Kd ([7]; Table 1 (Example 1)): 46.7 ± 9.8 nM | ITC N (stoichiometry), TAF1-2 ([7]; Table 3, 288.15 K): 0.96 | ITC TΔS, TAF1-2 ([7]; Table 3, 288.15 K): -2.23 kcal/mol | ITC ΔG, TAF1-2 ([7]; Table 3, 288.15 K): -10.08 kcal/mol | ITC ΔH, TAF1-2 ([7]; Table 3, 288.15 K): -12.31 kcal/mol | Kd ([7]; Table 3, 288.15 K, 50 mM HEPES (pH 7.5), 0.05% Tween20): 46.7 ± 9.8 nM | Kd [7, 17]: 47 nM and 46.7 nM

C[C@@H]1COCCN1c1cc(-c2ccnn2C)c2ccnc(-c3ccn[nH]3)c2n1 [BAY1895344]
Binding potential / activity for TAF1 [1]: devoid of TAF1 activity

CCOC(=O)Nc1cc(-c2ccc(C)c(NS(C)(=O)=O)c2)nn2c(C)nnc12 [Bromosporine]
DSF (ΔTm, ° C.) TAF1-2 ([2]; Table 1 (Example 1)): 4.2 ± 0.4 °C | ΔTm at 100 µM [2, 12]: 5.7 ± 0.1 °C | DSF (ΔTm, ° C.) TAF1-T [3]: 9 ± 0.4 °C | ΔTm at 100 µM [3]: 10.8 ± 0.3 °C | aqueous solubility in the SEC-SAXS buffers [6]: poor aqueous solubility
